{
  "source": "patent US7396837B2",
  "about": "“Antitumoral analogs of lamellarins” (Pharma Mar, S.A.U., priority 2002, dated 2008)",
  "data": [
    {"test_system": "SK-MEL-28", "experiment": "SRB colorimetric cell growth inhibition assay, SK-MEL-28", "format": "cell-based", "conditions": "Homo sapiens, SK-MEL-28, MEL-28; GI=growth inhibition; read-out: GI50 MEL-28", "how_it_was_run": "(§1)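 Continuous drug exposure of human cancer cells; SRB protein stain read-out; triplicate wells, mean ± SD; GI, TGI, LC computed.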", "units": {"GI50": "nM"}, "values": [
      {"smiles": "COc1cc(-c2c3c4cc(OC)c(OC(=O)[C@@H](N)Cc5ccccc5)cc4oc(=O)c3n3ccc4cc(OC(=O)[C@@H](N)Cc5ccccc5)c(OC)cc4c23)ccc1OC(=O)[C@@H](N)Cc1ccccc1", "note": "[Compound 204]", "GI50": 26.8}
    ]},
    {"test_system": "SK-MEL-28", "experiment": "SRB colorimetric cell growth inhibition assay, SK-MEL-28", "format": "cell-based", "conditions": "Homo sapiens, SK-MEL-28, MEL-28; cell killing (cytotoxic effect); read-out: LC50 MEL-28", "how_it_was_run": "as §1", "units": {"CC50": "nM"}, "values": [
      {"smiles": "COc1cc(-c2c3c4cc(OC)c(OC(=O)[C@@H](N)Cc5ccccc5)cc4oc(=O)c3n3ccc4cc(OC(=O)[C@@H](N)Cc5ccccc5)c(OC)cc4c23)ccc1OC(=O)[C@@H](N)Cc1ccccc1", "note": "[Compound 204]", "CC50": 7140}
    ]},
    {"test_system": "SK-MEL-28", "experiment": "SRB colorimetric cell growth inhibition assay, SK-MEL-28", "format": "cell-based", "conditions": "Homo sapiens, SK-MEL-28, MEL-28; total growth inhibition (cytostatic effect); read-out: TGI MEL-28", "how_it_was_run": "as §1", "units": {"IC (TGI)": "nM"}, "values": [
      {"smiles": "COc1cc(-c2c3c4cc(OC)c(OC(=O)[C@@H](N)Cc5ccccc5)cc4oc(=O)c3n3ccc4cc(OC(=O)[C@@H](N)Cc5ccccc5)c(OC)cc4c23)ccc1OC(=O)[C@@H](N)Cc1ccccc1", "note": "[Compound 204]", "IC (TGI)": 243}
    ]},
    {"test_system": "SK-BR-3", "experiment": "SRB colorimetric cell growth inhibition assay, SK-BR-3", "format": "cell-based", "conditions": "Homo sapiens, SK-BR-3, SK-BR-3; GI=growth inhibition; read-out: GI50 SK-BR-3", "how_it_was_run": "as §1", "units": {"GI50": "nM"}, "values": [
      {"smiles": "COc1cc(-c2c3c4cc(OC)c(OC(=O)[C@@H](N)Cc5ccccc5)cc4oc(=O)c3n3ccc4cc(OC(=O)[C@@H](N)Cc5ccccc5)c(OC)cc4c23)ccc1OC(=O)[C@@H](N)Cc1ccccc1", "note": "[Compound 204]", "GI50": 151}
    ]},
    {"test_system": "SK-BR-3", "experiment": "SRB colorimetric cell growth inhibition assay, SK-BR-3", "format": "cell-based", "conditions": "Homo sapiens, SK-BR-3, SK-BR-3; cell killing (cytotoxic effect); read-out: LC50 SK-BR-3", "how_it_was_run": "as §1", "units": {"CC50": "nM"}, "values": [
      {"smiles": "COc1cc(-c2c3c4cc(OC)c(OC(=O)[C@@H](N)Cc5ccccc5)cc4oc(=O)c3n3ccc4cc(OC(=O)[C@@H](N)Cc5ccccc5)c(OC)cc4c23)ccc1OC(=O)[C@@H](N)Cc1ccccc1", "note": "[Compound 204]", "CC50": 1090}
    ]},
    {"test_system": "SK-BR-3", "experiment": "SRB colorimetric cell growth inhibition assay, SK-BR-3", "format": "cell-based", "conditions": "Homo sapiens, SK-BR-3, SK-BR-3; total growth inhibition (cytostatic effect); read-out: TGI SK-BR-3", "how_it_was_run": "as §1", "units": {"IC (TGI)": "nM"}, "values": [
      {"smiles": "COc1cc(-c2c3c4cc(OC)c(OC(=O)[C@@H](N)Cc5ccccc5)cc4oc(=O)c3n3ccc4cc(OC(=O)[C@@H](N)Cc5ccccc5)c(OC)cc4c23)ccc1OC(=O)[C@@H](N)Cc1ccccc1", "note": "[Compound 204]", "IC (TGI)": 390}
    ]},
    {"test_system": "K-562", "experiment": "SRB colorimetric cell growth inhibition assay, K-562", "format": "cell-based", "conditions": "Homo sapiens, K562, K-562; GI=growth inhibition; read-out: GI50 K-562", "how_it_was_run": "as §1", "units": {"GI50": "nM"}, "values": [
      {"smiles": "COc1cc(-c2c3c4cc(OC)c(OC(=O)[C@@H](N)Cc5ccccc5)cc4oc(=O)c3n3ccc4cc(OC(=O)[C@@H](N)Cc5ccccc5)c(OC)cc4c23)ccc1OC(=O)[C@@H](N)Cc1ccccc1", "note": "[Compound 204]", "GI50": 7.48}
    ]},
    {"test_system": "K-562", "experiment": "SRB colorimetric cell growth inhibition assay, K-562", "format": "cell-based", "conditions": "Homo sapiens, K562, K-562; cell killing (cytotoxic effect); read-out: LC50 K-562", "how_it_was_run": "as §1", "units": {"CC50": "nM"}, "values": [
      {"smiles": "COc1cc(-c2c3c4cc(OC)c(OC(=O)[C@@H](N)Cc5ccccc5)cc4oc(=O)c3n3ccc4cc(OC(=O)[C@@H](N)Cc5ccccc5)c(OC)cc4c23)ccc1OC(=O)[C@@H](N)Cc1ccccc1", "note": "[Compound 204]", "CC50": 596}
    ]},
    {"test_system": "K-562", "experiment": "SRB colorimetric cell growth inhibition assay, K-562", "format": "cell-based", "conditions": "Homo sapiens, K562, K-562; total growth inhibition (cytostatic effect); read-out: TGI K-562", "how_it_was_run": "as §1", "units": {"IC (TGI)": "nM"}, "values": [
      {"smiles": "COc1cc(-c2c3c4cc(OC)c(OC(=O)[C@@H](N)Cc5ccccc5)cc4oc(=O)c3n3ccc4cc(OC(=O)[C@@H](N)Cc5ccccc5)c(OC)cc4c23)ccc1OC(=O)[C@@H](N)Cc1ccccc1", "note": "[Compound 204]", "IC (TGI)": 203}
    ]},
    {"test_system": "HeLa-APL", "experiment": "SRB colorimetric cell growth inhibition assay, HeLa-APL (aplidine resistant)", "format": "cell-based", "conditions": "Homo sapiens, HELA-APL; GI=growth inhibition; read-out: GI50 HELA-APL", "how_it_was_run": "as §1", "units": {"GI50": "nM"}, "values": [
      {"smiles": "COc1cc(-c2c3c4cc(OC)c(OC(=O)[C@@H](N)Cc5ccccc5)cc4oc(=O)c3n3ccc4cc(OC(=O)[C@@H](N)Cc5ccccc5)c(OC)cc4c23)ccc1OC(=O)[C@@H](N)Cc1ccccc1", "note": "[Compound 204]", "GI50": 88.8}
    ]},
    {"test_system": "HeLa-APL", "experiment": "SRB colorimetric cell growth inhibition assay, HeLa-APL (aplidine resistant)", "format": "cell-based", "conditions": "Homo sapiens, HELA-APL; cell killing (cytotoxic effect); read-out: LC50 HELA-APL", "how_it_was_run": "as §1", "units": {"CC50": "nM"}, "values": [
      {"smiles": "COc1cc(-c2c3c4cc(OC)c(OC(=O)[C@@H](N)Cc5ccccc5)cc4oc(=O)c3n3ccc4cc(OC(=O)[C@@H](N)Cc5ccccc5)c(OC)cc4c23)ccc1OC(=O)[C@@H](N)Cc1ccccc1", "note": "[Compound 204]", "CC50": 594}
    ]},
    {"test_system": "HeLa-APL", "experiment": "SRB colorimetric cell growth inhibition assay, HeLa-APL (aplidine resistant)", "format": "cell-based", "conditions": "Homo sapiens, HELA-APL; total growth inhibition (cytostatic effect); read-out: TGI HELA-APL", "how_it_was_run": "as §1", "units": {"IC (TGI)": "nM"}, "values": [
      {"smiles": "COc1cc(-c2c3c4cc(OC)c(OC(=O)[C@@H](N)Cc5ccccc5)cc4oc(=O)c3n3ccc4cc(OC(=O)[C@@H](N)Cc5ccccc5)c(OC)cc4c23)ccc1OC(=O)[C@@H](N)Cc1ccccc1", "note": "[Compound 204]", "IC (TGI)": 235}
    ]},
    {"test_system": "HT-29", "experiment": "SRB colorimetric cell growth inhibition assay, HT-29", "format": "cell-based", "conditions": "Homo sapiens, HT-29, HT-29; GI=growth inhibition; read-out: GI50 HT-29", "how_it_was_run": "as §1", "units": {"GI50": "nM"}, "values": [
      {"smiles": "COc1cc(-c2c3c4cc(OC)c(OC(=O)[C@@H](N)Cc5ccccc5)cc4oc(=O)c3n3ccc4cc(OC(=O)[C@@H](N)Cc5ccccc5)c(OC)cc4c23)ccc1OC(=O)[C@@H](N)Cc1ccccc1", "note": "[Compound 204]", "GI50": 1400}
    ]},
    {"test_system": "HT-29", "experiment": "SRB colorimetric cell growth inhibition assay, HT-29", "format": "cell-based", "conditions": "Homo sapiens, HT-29, HT-29; cell killing (cytotoxic effect); read-out: LC50 HT-29", "how_it_was_run": "as §1", "units": {"CC50": "nM"}, "values": [
      {"smiles": "COc1cc(-c2c3c4cc(OC)c(OC(=O)[C@@H](N)Cc5ccccc5)cc4oc(=O)c3n3ccc4cc(OC(=O)[C@@H](N)Cc5ccccc5)c(OC)cc4c23)ccc1OC(=O)[C@@H](N)Cc1ccccc1", "note": "[Compound 204]", "CC50": 9520}
    ]},
    {"test_system": "HT-29", "experiment": "SRB colorimetric cell growth inhibition assay, HT-29", "format": "cell-based", "conditions": "Homo sapiens, HT-29, HT-29; total growth inhibition (cytostatic effect); read-out: TGI HT-29", "how_it_was_run": "as §1", "units": {"IC (TGI)": "nM"}, "values": [
      {"smiles": "COc1cc(-c2c3c4cc(OC)c(OC(=O)[C@@H](N)Cc5ccccc5)cc4oc(=O)c3n3ccc4cc(OC(=O)[C@@H](N)Cc5ccccc5)c(OC)cc4c23)ccc1OC(=O)[C@@H](N)Cc1ccccc1", "note": "[Compound 204]", "IC (TGI)": 3800}
    ]},
    {"test_system": "IGROV-ET", "experiment": "SRB colorimetric cell growth inhibition assay, IGROV-ET (ET-743 resistant)", "format": "cell-based", "conditions": "Homo sapiens, IGROV-ET; GI=growth inhibition; read-out: GI50 IGROV-ET", "how_it_was_run": "as §1", "units": {"GI50": "nM"}, "values": [
      {"smiles": "COc1cc(-c2c3c4cc(OC)c(OC(=O)[C@@H](N)Cc5ccccc5)cc4oc(=O)c3n3ccc4cc(OC(=O)[C@@H](N)Cc5ccccc5)c(OC)cc4c23)ccc1OC(=O)[C@@H](N)Cc1ccccc1", "note": "[Compound 204]", "GI50": 18}
    ]},
    {"test_system": "IGROV-ET", "experiment": "SRB colorimetric cell growth inhibition assay, IGROV-ET (ET-743 resistant)", "format": "cell-based", "conditions": "Homo sapiens, IGROV-ET; cell killing (cytotoxic effect); read-out: LC50 IGROV-ET", "how_it_was_run": "as §1", "units": {"CC50": "nM"}, "values": [
      {"smiles": "COc1cc(-c2c3c4cc(OC)c(OC(=O)[C@@H](N)Cc5ccccc5)cc4oc(=O)c3n3ccc4cc(OC(=O)[C@@H](N)Cc5ccccc5)c(OC)cc4c23)ccc1OC(=O)[C@@H](N)Cc1ccccc1", "note": "[Compound 204]", "CC50": 9520}
    ]},
    {"test_system": "IGROV-ET", "experiment": "SRB colorimetric cell growth inhibition assay, IGROV-ET (ET-743 resistant)", "format": "cell-based", "conditions": "Homo sapiens, IGROV-ET; total growth inhibition (cytostatic effect); read-out: TGI IGROV-ET", "how_it_was_run": "as §1", "units": {"IC (TGI)": "nM"}, "values": [
      {"smiles": "COc1cc(-c2c3c4cc(OC)c(OC(=O)[C@@H](N)Cc5ccccc5)cc4oc(=O)c3n3ccc4cc(OC(=O)[C@@H](N)Cc5ccccc5)c(OC)cc4c23)ccc1OC(=O)[C@@H](N)Cc1ccccc1", "note": "[Compound 204]", "IC (TGI)": 109}
    ]},
    {"test_system": "HeLa", "experiment": "SRB colorimetric cell growth inhibition assay, HeLa", "format": "cell-based", "conditions": "Homo sapiens, HeLa; GI=growth inhibition; read-out: GI50 HELA", "how_it_was_run": "as §1", "units": {"GI50": "nM"}, "values": [
      {"smiles": "COc1cc(-c2c3c4cc(OC)c(OC(=O)[C@@H](N)Cc5ccccc5)cc4oc(=O)c3n3ccc4cc(OC(=O)[C@@H](N)Cc5ccccc5)c(OC)cc4c23)ccc1OC(=O)[C@@H](N)Cc1ccccc1", "note": "[Compound 204]", "GI50": 36.9}
    ]},
    {"test_system": "HeLa", "experiment": "SRB colorimetric cell growth inhibition assay, HeLa", "format": "cell-based", "conditions": "Homo sapiens, HeLa; cell killing (cytotoxic effect); read-out: LC50 HELA", "how_it_was_run": "as §1", "units": {"CC50": "nM"}, "values": [
      {"smiles": "COc1cc(-c2c3c4cc(OC)c(OC(=O)[C@@H](N)Cc5ccccc5)cc4oc(=O)c3n3ccc4cc(OC(=O)[C@@H](N)Cc5ccccc5)c(OC)cc4c23)ccc1OC(=O)[C@@H](N)Cc1ccccc1", "note": "[Compound 204]", "CC50": 452}
    ]},
    {"test_system": "HeLa", "experiment": "SRB colorimetric cell growth inhibition assay, HeLa", "format": "cell-based", "conditions": "Homo sapiens, HeLa; total growth inhibition (cytostatic effect); read-out: TGI HELA", "how_it_was_run": "as §1", "units": {"IC (TGI)": "nM"}, "values": [
      {"smiles": "COc1cc(-c2c3c4cc(OC)c(OC(=O)[C@@H](N)Cc5ccccc5)cc4oc(=O)c3n3ccc4cc(OC(=O)[C@@H](N)Cc5ccccc5)c(OC)cc4c23)ccc1OC(=O)[C@@H](N)Cc1ccccc1", "note": "[Compound 204]", "IC (TGI)": 172}
    ]}
  ]
}
